# Measured values: PMC10184130
# Structures can show the parent of a compound that is named as a salt.
# Legend:
# [1] = target: T1, human C1s (Homo sapiens, UniProt P09871); test: Human C1s enzyme assay; assay type: biochemical
# T1 construct: Recombinant human C1s (358–688 aa) fused with both the N-terminal IgG signal peptide; IgG signal peptide (N); His tag (C); made in house; host or cells: HEK293 cells
# T1 sequence (P09871 358-688): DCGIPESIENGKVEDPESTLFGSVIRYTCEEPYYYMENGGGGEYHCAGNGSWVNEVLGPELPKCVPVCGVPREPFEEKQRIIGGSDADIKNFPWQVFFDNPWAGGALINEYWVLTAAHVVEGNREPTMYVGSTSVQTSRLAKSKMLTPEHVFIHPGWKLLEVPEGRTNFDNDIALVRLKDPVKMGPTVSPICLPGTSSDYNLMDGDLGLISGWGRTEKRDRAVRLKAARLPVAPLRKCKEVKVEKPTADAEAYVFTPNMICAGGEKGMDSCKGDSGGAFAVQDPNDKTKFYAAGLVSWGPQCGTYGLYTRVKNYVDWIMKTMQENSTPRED
# Description: Recombinant human C1s (358–688 aa) fused with both the N-terminal IgG signal peptide and the C-terminal His tag was expressed in HEK293 cells and purified. The assay was performed in a 384-well clear plate in a total volume of 20 μL of an assay buffer 1 [50 mmol/L Tris–HCl (pH 7.5), 150 mmol/L NaCl, 0.01% (w/v) Tween 20, and 0.01% (w/v) BSA]. Compounds were dissolved in DMSO and diluted to various concentrations. After 20 nL of compound solution was added to the plate, 10 μL of substrate solution containing a 250 μmol/L Z-Lys-SBzl peptide (Watanabe Chemical, Hiroshima, Japan) and 250 μmol/L DTNB (5,5′-dithiobis(2-nitrobenzoic acid)) (Sigma, MO, USA) was added to the plate. Then, 8 nmol/L human C1s was added to the plate and incubated at room temperature for 60 min. The absorbance at 405 nm was detected using an EnVision multilabel plate reader. […] The IC50 values were calculated using IDBS XLfit software.
# [2] = target: T2, Human Multidrug Resistance 1 (MDR-1) Expressing Cells (Homo sapiens, UniProt P08183); test: Membrane permeability with human MDR-1 expressing cells; assay type: in vitro ADME; details: supplementary csv
# T2 construct: expressed in transfected cells
# Description: (§1) The transcellular transport study was performed as reported previously.[31] In brief, the cells were grown in an HTS Transwell 96-well permeable support (pore size of 0.4 μm, 0.143 cm^2 surface area) with a polyethylene terephthalate membrane (Corning Life Sciences, Lowell, MA, USA) at a density of 1.125 × 10^5 cells/well. The cells were preincubated with M199 at 37 °C for 30 min. Subsequently, transcellular transport was initiated by the addition of M199 to apical compartments containing 1 μmol/L test compounds and terminated by the removal of each assay plate after 2 h. The aliquots in the opposite compartments were subjected to measurement for compound concentration by LC–MS/MS. Permeability was calculated using the permeated compound concentration.
# [3] = target: T3, MDR1 (P-gp) (Homo sapiens, UniProt P08183); test: as above; assay type: in vitro ADME; details: human; MDR1-expressing cells, 1 μmol/L, 2 h
# T3 construct: expressed in transfected cells
# Description: as §1
# [4] = PAMPA; assay type: in vitro ADME
# Description: A PAMPA Evolution system (pION) was applied for the assay. After incubating the test compound (10 μmol/L) for 3 h at 25 °C, the permeation coefficient value was calculated with determining the test compound by LC/MS/MS.
# [5] = target: human trypsin; test: Human trypsin enzyme assay; assay type: biochemical
# Description: Recombinant human trypsin (FUJIFILM Wako, Osaka, Japan) and the substrate were diluted in an assay buffer [50 mmol/L Tris–HCl (pH 7.5), 145 mmol/L NaCl, 2 mmol/L CaCl2, and 0.01% (w/v) Tween 20]. After 20 nL of compound solution was added to a 384-well black plate, 3 μL of substrate solution containing 25 μmol/L Boc-Phe-Ser-Arg-MCA (Peptide Institute, Osaka, Japan) was added to the plate. Then, 6 mU/mL human trypsin was added to the plate and incubated at room temperature for 60 min. The fluorescence at an excitation wavelength of 360 nm and an emission wavelength of 460 nm was detected using an EnVision multilabel plate reader.
# [6] = target: T4, human MASP2 (Homo sapiens, UniProt O00187); test: Human MASP2 enzyme assay; assay type: biochemical
# T4 construct: Recombinant human MASP2 (298–686 aa) fused with both the N-terminal IgG signal peptide; IgG signal peptide (N); His tag (C); made in house; host or cells: Expi293 cells
# Description: Recombinant human MASP2 (298–686 aa) fused with both the N-terminal IgG signal peptide and the C-terminal His tag was expressed in Expi293 cells and purified. The assay was performed in a 384-well black plate in a total volume of 6 μL of the assay buffer 1. After 20 nL of compound solution was added to the plate, 3 μL of substrate solution containing a 20 μmol/L Z-Gly-Arg-SBzl peptide and 20 μmol/L BES-Thio (FUJIFILM Wako, Osaka, Japan) was added to the plate. Then, 0.6 nmol/L human MASP2 was added to the plate and incubated at room temperature for 60 min. The fluorescence at an excitation wavelength of 485 nm and an emission wavelength of 535 nm was detected using an EnVision multilabel plate reader.
# [7] = target: T5, human C1r (Homo sapiens, UniProt P00736); test: Human C1r enzyme assay; assay type: biochemical
# T5 construct: Recombinant human C1r (375–705 aa) fused with both the N-terminal IgG signal peptide; IgG signal peptide (N); His tag (C); made in house; host or cells: HEK293 cells
# T5 sequence (P00736 375-705): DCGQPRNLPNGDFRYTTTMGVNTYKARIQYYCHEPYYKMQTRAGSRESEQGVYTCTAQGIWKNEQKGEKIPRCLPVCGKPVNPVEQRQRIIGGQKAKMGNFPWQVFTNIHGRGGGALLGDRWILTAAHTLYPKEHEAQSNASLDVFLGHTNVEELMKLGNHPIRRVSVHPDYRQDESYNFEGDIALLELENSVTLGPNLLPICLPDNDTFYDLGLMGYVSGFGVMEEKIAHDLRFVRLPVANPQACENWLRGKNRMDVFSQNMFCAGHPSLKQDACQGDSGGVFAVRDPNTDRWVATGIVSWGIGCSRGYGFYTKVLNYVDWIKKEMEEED
# Text: Recombinant human C1r (375–705 aa) fused with both the N-terminal IgG signal peptide and the C-terminal His tag was expressed in HEK293 cells and purified. Human C1r assay conditions were the same as for human C1s, except that the enzyme solution concentration was 3 nmol/L and the substrate peptide was 250 μmol/L Z-Gly-Arg-SBzl (custom synthesis from Peptide Institute, Osaka, Japan) instead of Z-Lys-SBzl.
# [8] = target: T6, human thrombin (Homo sapiens, UniProt P00734); test: Human thrombin enzyme assay; assay type: biochemical
# T6 construct: purchased AnaSpec
# Description: The human thrombin enzyme activity was determined by a SensoLyte 520 thrombin activity assay kit (AnaSpec, CA, USA). Purified human thrombin and the substrate were diluted in the assay buffer 1. After 20 nL of compound solution was added to a 384-well black plate, 3 μL of the 2 μmol/L 5-FAM/QXLTM 520 thrombin substrate was added to the plate. Then, 8 nmol/L human thrombin was added to the plate and incubated at room temperature for 60 min. The fluorescence at an excitation wavelength of 485 nm and an emission wavelength of 535 nm was detected using an EnVision multilabel plate reader.
# [9] = target: T7, human factor D (Homo sapiens, UniProt P00746); test: Human factor D enzyme assay; assay type: biochemical
# T7 construct: Recombinant human factor D (26–253 aa) fused with both the N-terminal IgG signal peptide; IgG signal peptide (N); His tag (C); made in house; host or cells: Expi293 cells
# Text: Recombinant human factor D (26–253 aa) fused with both the N-terminal IgG signal peptide and the C-terminal His tag was expressed in Expi293 cells and purified. The human factor D assay condition was the same as for human MASP2, except that the enzyme solution concentration was 20 nmol/L and the substrate solution contained a 400 μmol/L Z-Lys-SBzl peptide and 50 μmol/L BES-Thio.
# [10] = likely due to the basic amidine moiety; cited from earlier work
# [11] = 95% confidence intervals in parentheses
# T4 sequence (O00187 298-686): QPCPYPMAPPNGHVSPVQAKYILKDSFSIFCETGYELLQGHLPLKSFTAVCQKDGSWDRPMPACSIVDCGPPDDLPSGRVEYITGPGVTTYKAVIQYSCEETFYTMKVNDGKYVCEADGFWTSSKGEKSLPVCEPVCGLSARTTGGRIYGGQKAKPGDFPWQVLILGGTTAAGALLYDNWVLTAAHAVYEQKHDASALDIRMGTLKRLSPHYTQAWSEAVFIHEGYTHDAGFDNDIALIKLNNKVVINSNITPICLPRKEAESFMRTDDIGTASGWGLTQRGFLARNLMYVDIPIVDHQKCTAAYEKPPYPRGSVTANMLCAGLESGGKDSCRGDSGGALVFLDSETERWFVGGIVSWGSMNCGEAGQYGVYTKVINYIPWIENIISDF
# T7 sequence (P00746 26-253): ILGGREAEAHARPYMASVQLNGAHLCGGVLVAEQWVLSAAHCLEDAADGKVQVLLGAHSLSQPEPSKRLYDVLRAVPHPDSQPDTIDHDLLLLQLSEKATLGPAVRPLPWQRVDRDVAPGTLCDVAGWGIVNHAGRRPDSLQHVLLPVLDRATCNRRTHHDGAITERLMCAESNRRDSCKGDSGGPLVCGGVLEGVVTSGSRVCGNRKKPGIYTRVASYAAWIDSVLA
Structure (SMILES),"IC50 [1, 11] [nM]",further results
"Nc1nncc2cc(N3CCN(C(=O)c4ccccc4)CC3)ccc12 [Compound 4f, [4-(1-Aminophthalazin-6-yl)piperazin-1-yl](phenyl)methanone]",5100,–
"Cc1cc([C@@H]2CN(c3cc(F)c4c(N)nncc4c3)CCN2c2cccc(F)c2)no1 [(S)-8, 8-Fluoro-6-[(3S)-4-(3-fluorophenyl)-3-(5-methyl-1,2-oxazol-3-yl)piperazin-1-yl]phthalazin-1-amine]",> 300000,–
"Cc1ccc(C(=O)N2CCN(c3ccc4cnncc4c3)CC2)cc1 [Compound 4d, (4-Methylphenyl)[4-(phthalazin-6-yl)piperazin-1-yl]methanone]",> 300000,–
"C[C@H]1CN(c2ccc3c(N)nncc3c2)CCN1c1cccc(F)c1 [(S)-6, 6-[(3S)-4-(3-Fluorophenyl)-3-methylpiperazin-1-yl]phthalazin-1-amine]",170,–
"Nc1nncc2cc(N3CCC(c4ccccc4)CC3)ccc12 [Compound 5b, 6-(4-Phenylpiperidin-1-yl)phthalazin-1-amine Trifluoroacetic Acid Salt]",4200,–
"Cc1cccc(N2CCN(c3ccc4c(N)nncc4c3)CC2)c1 [Compound 5e, 6-[4-(3-Methylphenyl)piperazin-1-yl]phthalazin-1-amine]",560,–
"Nc1nncc2cc(N3CCN(c4cccc(Cl)c4)CC3)ccc12 [Compound 5h, 6-[4-(3-Chlorophenyl)piperazin-1-yl]phthalazin-1-amine Trifluoroacetic Acid Salt]",390,–
"Cc1ccc(C(=O)N2CCN(c3ccc4c(N)nncc4c3)CC2)cc1 [Compound 4c, [4-(1-Aminophthalazin-6-yl)piperazin-1-yl](4-methylphenyl)methanone]",2500,–
"Nc1nncc2cc(N3CCN(c4cccc(F)c4)CC3)ccc12 [Compound 5g, 6-[4-(3-Fluorophenyl)piperazin-1-yl]phthalazin-1-amine]",370,–
"Cc1ccc(C(=O)N2CCN(c3ccc4c(N)nccc4c3)CC2)cc1 [Compound 4b, [4-(1-Aminoisoquinolin-6-yl)piperazin-1-yl](4-methylphenyl)methanone]",96000,–
"COc1cccc(N2CCN(c3ccc4c(N)nncc4c3)CC2)c1 [Compound 5i, 6-[4-(3-Methoxyphenyl)piperazin-1-yl]phthalazin-1-amine]",1400,–
"C[C@@H]1CN(c2ccc3c(N)nncc3c2)CCN1c1cccc(F)c1 [(R)-6, 6-[(3R)-4-(3-Fluorophenyl)-3-methylpiperazin-1-yl]phthalazin-1-amine]",820,–
"Cc1cc([C@H]2CN(c3ccc4c(N)nncc4c3)CCN2c2cccc(F)c2)no1.O=C(O)C(F)(F)F [Compound (R)-7, 6-[(3R)-4-(3-Fluorophenyl)-3-(5-methyl-1,2-oxazol-3-yl)piperazin-1-yl]phthalazin-1-amine Trifluoroacetic Acid Salt]",7.1,"MDR1 (A to B) [2]: 3 nm/s; Papp A→B at 2 h, 1 μmol/L [3]: 0.3 ×10⁻⁶ cm/s; Papp at 3 h, 10 μmol/L ([4]; PAMPA, pH 7.4): 1.9 ×10⁻⁶ cm/s; PAMPA at pH 7.4 (nm/sec) ([4]; supplementary csv): 19 nm/sec"
"Nc1nncc2cc(C3CCN(c4ccccc4)CC3)ccc12 [Compound 5c, 6-(1-Phenylpiperidin-4-yl)phthalazin-1-amine]",> 30000,–
"Nc1nncc2cc(N3CCN(c4ccccc4)CC3)ccc12 [Compound 5a, 6-(4-Phenylpiperazin-1-yl)phthalazin-1-amine Trifluoroacetic Acid Salt]",580,–
"Cc1ccccc1N1CCN(c2ccc3c(N)nncc3c2)CC1 [Compound 5d, 6-[4-(2-Methylphenyl)piperazin-1-yl]phthalazin-1-amine Trifluoroacetic Acid Salt]",1200,–
"Cc1ccccc1C(=O)N1CCN(c2ccc3c(N)nncc3c2)CC1 [Compound 4e, [4-(1-Aminophthalazin-6-yl)piperazin-1-yl](2-methylphenyl)methanone]",–,IC50 [5]: > 30000 nM; IC50 [6]: > 30000 nM; IC50 [7]: > 30000 nM; IC50 [8]: > 30000 nM; IC50 [9]: > 30000 nM; IC50 ([1]; supplementary csv): 4500 nM
"Cc1ccc(N2CCN(c3ccc4c(N)nncc4c3)CC2)cc1 [Compound 5f, 6-[4-(4-Methylphenyl)piperazin-1-yl]phthalazin-1-amine]",6700,–
CSc1sc(C(=N)N)cc1S(=O)(=O)c1cccc(-c2c(C)cccc2NC(=O)CCCS(C)(=O)=O)c1 [Compound 1],–,in vivo pharmacokinetics (PK) properties [10]: poor
"N#Cc1cccc(N2CCN(c3ccc4c(N)nncc4c3)CC2)c1 [Compound 5j, 3-[4-(1-Aminophthalazin-6-yl)piperazin-1-yl]benzonitrile]",1400,–
